Experiments:
[1] = tested on: JHH-6 (Hepatocellular Carcinoma); assay: Bliss excess, mean over the matrix (fraction); higher = more synergy
Procedure, shortened: (§1)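 Bliss excess equals the observed combination effect minus the expected value EA + EB − EA·EB, where EA and EB are the effects of each agent alone. Combination Emax is the second-highest inhibition within the matrix. Inhibition was scaled from CellTiter-Glo 2.0 luminescence, with 0 set by vehicle wells and 1 by blank wells, after 72 hours of two-drug dosing of cells plated in 1536-well plates.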

HCC38 (Breast Carcinoma) = assay: as above
Procedure, shortened: as §1

[2] = tested on: HOP-92 (Non-Small Cell Lung Carcinoma); assay: as above
Procedure, shortened: as §1

[3] = tested on: PA-TU-8902 (Pancreatic Carcinoma); assay: as above
Procedure, shortened: as §1

[4] = tested on: SW948 (Colorectal Carcinoma); assay: as above
Procedure, shortened: as §1

CS1 (Chondrosarcoma) = assay: as above
Procedure, shortened: as §1

[5] = tested on: DOK (Oral Cavity Carcinoma); assay: as above
Procedure, shortened: as §1

EW-22 (Ewing's Sarcoma) = assay: as above
Procedure, shortened: as §1

HuO9 (Osteosarcoma) = assay: as above
Procedure, shortened: as §1

[6] = tested on: MEG-01 (Chronic Myelogenous Leukemia); assay: as above
Procedure, shortened: as §1

SK-MEL-1 (Melanoma) = assay: as above
Procedure, shortened: as §1

[7] = tested on: ETK-1 (Biliary Tract Carcinoma); assay: as above
Procedure, shortened: as §1

[8] = tested on: BICR78 (Oral Cavity Carcinoma); assay: as above
Procedure, shortened: as §1

[9] = tested on: KG-1 (Acute Myeloid Leukemia); assay: as above
Procedure, shortened: as §1

[10] = tested on: HOP-92 (Non-Small Cell Lung Carcinoma); assay: combination Emax (second highest fraction inhibited in the dose matrix, 72 h); higher = more inhibition; extreme values may be limits of the assay
Procedure, shortened: as §1

H4 (Low Grade Glioma) = assay: as above
Procedure, shortened: as §1

[11] = tested on: EKVX (Non-Small Cell Lung Carcinoma); assay: as above
Procedure, shortened: as §1

[12] = tested on: SK-UT-1 (Other Solid Carcinomas); assay: as above
Procedure, shortened: as §1

[13] = tested on: MES-SA (Other Solid Carcinomas); assay: as above
Procedure, shortened: as §1

[14] = tested on: KG-1 (Acute Myeloid Leukemia); assay: as above
Procedure, shortened: as §1

Structure (SMILES)	Bliss excess [1]	Bliss excess (HCC38 (Breast Carcinoma))	Bliss excess [2]	Bliss excess [3]	Bliss excess [4]	Bliss excess (CS1 (Chondrosarcoma))	Bliss excess [5]	Bliss excess (EW-22 (Ewing's Sarcoma))	Bliss excess (HuO9 (Osteosarcoma))	Bliss excess [6]	Bliss excess (SK-MEL-1 (Melanoma))	Bliss excess [7]	Bliss excess [8]	Bliss excess [9]	combination Emax [10]	combination Emax (H4 (Low Grade Glioma))	combination Emax [11]	combination Emax [12]	combination Emax [13]	combination Emax [14]
COc1cccc(OCCCN)c1-c1cc(Nc2cnc(C#N)cn2)n[nH]1 [Prexasertib] + CCc1c2c(nc3ccc(O)cc13)-c1cc3c(c(=O)n1C2)COC(=O)[C@]3(O)CC [SN-38] (first compound max 1 µM, 7x7, partner max 0.3 µM)	0.0337	-0.0201	0.0418	0.049	0.151	-0.0742	0.0242	-0.0916	-0.0301	-0.0073	-0.0593	0.0465	-0.0236	-0.0454	0.873	0.941	0.379	0.982	0.762	0.925
COc1cccc(OCCCN)c1-c1cc(Nc2cnc(C#N)cn2)n[nH]1 [Prexasertib] + CN(C)CCCOc1ccc(-c2ccc3ncc4c(c3c2)n(C2CCOCC2)c(=O)n4C)cn1 [AZD0156] (first compound max 1 µM, 7x7, partner max 1 µM)	0.0349	-0.0482	0.0056	0.0068	0.0294	-0.0324	-0.0225	-0.05	-0.0958	-0.0411	-0.0194	0.0229	-0.0292	-0.0289	0.704	0.917	0.265	0.936	0.905	0.903
COc1cccc(OCCCN)c1-c1cc(Nc2cnc(C#N)cn2)n[nH]1 [Prexasertib] + C[C@@H]1COCCN1C2=NC(=NC(=C2)C3(CC3)[S@](=N)(=O)C)C4=C5C=CNC5=NC=C4 [AZD6738] (first compound max 1 µM, 7x7, partner max 10 µM)	0.0207	-0.0029	-0.0039	0.0229	0.0334	-0.0111	0.0689	-0.0326	-0.0638	-0.0542	-0.015	-0.0028	-0.0057	-0.0531	0.669	0.91	0.24	0.926	0.757	0.931
COc1cccc(OCCCN)c1-c1cc(Nc2cnc(C#N)cn2)n[nH]1 [Prexasertib] + Cc1cc2ncnn2cc1Nc1ncc2c(n1)n(C1CCOCC1)c(=O)n2C [AZD7648] (first compound max 1 µM, 7x7, partner max 10 µM)	0.0194	-0.0592	0.0218	-0.0059	-0.0155	-0.0285	0.0019	-0.0519	-0.105	-0.0363	-0.0247	0.059	-0.0379	-0.0264	0.663	0.874	0.276	0.957	0.912	0.912
COc1cccc(OCCCN)c1-c1cc(Nc2cnc(C#N)cn2)n[nH]1 [Prexasertib] + O=C(c1cc(Cc2n[nH]c(=O)c3ccccc23)ccc1F)N1CCN(C(=O)C2CC2)CC1 [Olaparib] (first compound max 1 µM, 7x7, partner max 10 µM)	0.0128	-0.0641	-0.0692	-0.0783	-0.0118	-0.0635	-0.0269	-0.0447	0.0553	-0.0981	-0.0435	0.0573	-0.0261	-0.0343	0.665	0.845	0.194	0.957	0.809	1
COc1cc2c(cc1OCCCCCOc1cc3c(cc1OC)C(=O)N1C=C(C)C[C@H]1C=N3)N=C[C@@H]1CC(C)=CN1C2=O [SG3199] + O=C(c1cc(Cc2n[nH]c(=O)c3ccccc23)ccc1F)N1CCN(C(=O)C2CC2)CC1 [Olaparib] (first compound max 0.001 µM, 7x7, partner max 10 µM)	-0.0353	-0.0356	-0.0048	-0.0291	-0.0092	-0.0451	-0.0368	-0.0544	-0.0273	-0.0326	-0.0239	-0.0021	-0.0456	0.0015	0.192	0.505	0.0945	0.046	0.43	0.289

Source: the supplement of paper PMC11061612
